Test results reported in ChEMBL document CHEMBL1201861, “Genomics of Drug Sensitity in Cancer screening data, Wellcome Trust Sanger Institute”.

test system: ES3; experiment: cells; assay type: functional, cell-based, Homo sapiens; conditions: Homo sapiens, ES3;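 further: growth inhibition of ES3 cells, read out with a cell viability assay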
Description: SANGER: Inhibition of human ES3 cell growth in a cell viability assay.

Row | Structure (SMILES) | IC50
1 | Cc1ccc(C(=O)Nc2ccc(CN3CCN(C)CC3)c(C(F)(F)F)c2)cc1C#Cc1cnc2cccnn12 [PONATINIB] | > 512 nM

test system: OCI-AML2; experiment: cells; assay type: functional, cell-based, Homo sapiens; conditions: Homo sapiens, OCI-AML2;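 further: growth inhibition of OCI-AML2 cells, read out with a cell viability assay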
Description: SANGER: Inhibition of human OCI-AML2 cell growth in a cell viability assay.

Row | Structure (SMILES) | IC50
2 | Cc1ccc(C(=O)Nc2ccc(CN3CCN(C)CC3)c(C(F)(F)F)c2)cc1C#Cc1cnc2cccnn12 [PONATINIB] | > 512 nM

test system: SK-MEL-2; experiment: cells; assay type: functional, cell-based, Homo sapiens; conditions: Homo sapiens, SK-MEL-2;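 further: growth inhibition of human SK-MEL-2 cells measured with a cell viability assay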
Description: SANGER: Inhibition of human SK-MEL-2 cell growth in a cell viability assay.

Row | Structure (SMILES) | IC50
3 | Cc1ccc(C(=O)Nc2ccc(CN3CCN(C)CC3)c(C(F)(F)F)c2)cc1C#Cc1cnc2cccnn12 [PONATINIB] | > 512 nM

test system: COLO-824; experiment: cells; assay type: functional, cell-based, Homo sapiens; conditions: Homo sapiens, COLO-824
Description: SANGER: Inhibition of human COLO-824 cell growth in a cell viability assay.

Row | Structure (SMILES) | IC50
4 | Cc1ccc(C(=O)Nc2ccc(CN3CCN(C)CC3)c(C(F)(F)F)c2)cc1C#Cc1cnc2cccnn12 [PONATINIB] | > 512 nM

test system: RS4-11; experiment: cells; assay type: functional, cell-based, Homo sapiens; conditions: Homo sapiens, RS4-11;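 further: growth inhibition of RS4-11 cells, read out by a cell viability assay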
Description: SANGER: Inhibition of human RS4-11 cell growth in a cell viability assay.

Row | Structure (SMILES) | IC50
5 | Cc1ccc(C(=O)Nc2ccc(CN3CCN(C)CC3)c(C(F)(F)F)c2)cc1C#Cc1cnc2cccnn12 [PONATINIB] | > 512 nM

test system: KALS-1; experiment: cells; assay type: functional, cell-based, Homo sapiens; conditions: Homo sapiens, KALS-1; read-out: IC50;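 further: growth inhibition of KALS-1 cells, determined with a cell viability assay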
Description: SANGER: Inhibition of human KALS-1 cell growth in a cell viability assay.

Row | Structure (SMILES) | IC50
6 | Cc1ccc(C(=O)Nc2ccc(CN3CCN(C)CC3)c(C(F)(F)F)c2)cc1C#Cc1cnc2cccnn12 [PONATINIB] | > 512 nM

test system: KU812 cell line; experiment: cells; assay type: functional, cell-based, Homo sapiens; conditions: Homo sapiens, KU812;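 further: growth inhibition of KU812 cells, read out with a cell viability assay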
Description: SANGER: Inhibition of human KU812 cell growth in a cell viability assay.

Row | Structure (SMILES) | IC50
7 | Cc1ccc(C(=O)Nc2ccc(CN3CCN(C)CC3)c(C(F)(F)F)c2)cc1C#Cc1cnc2cccnn12 [PONATINIB] | 28.5 nM

test system: HCE-4; experiment: cells; assay type: functional, cell-based; conditions: Homo sapiens;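 further: cell viability assay measuring inhibition of growth in the human HCE-4 cell line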
Description: SANGER: Inhibition of human HCE-4 cell growth in a cell viability assay.

Row | Structure (SMILES) | IC50
8 | Cc1ccc(C(=O)Nc2ccc(CN3CCN(C)CC3)c(C(F)(F)F)c2)cc1C#Cc1cnc2cccnn12 [PONATINIB] | > 512 nM

test system: UACC-257; experiment: cells; assay type: functional, cell-based, Homo sapiens; conditions: Homo sapiens, UACC-257
Description: SANGER: Inhibition of human UACC-257 cell growth in a cell viability assay.

Row | Structure (SMILES) | IC50
9 | Cc1ccc(C(=O)Nc2ccc(CN3CCN(C)CC3)c(C(F)(F)F)c2)cc1C#Cc1cnc2cccnn12 [PONATINIB] | > 512 nM

test system: KARPAS-299; experiment: cells; assay type: functional, cell-based, Homo sapiens; conditions: Homo sapiens, KARPAS-299
Description: SANGER: Inhibition of human KARPAS-299 cell growth in a cell viability assay.

Row | Structure (SMILES) | IC50
10 | Cc1ccc(C(=O)Nc2ccc(CN3CCN(C)CC3)c(C(F)(F)F)c2)cc1C#Cc1cnc2cccnn12 [PONATINIB] | > 512 nM

test system: PSN1; experiment: cells; assay type: functional, cell-based, Homo sapiens; conditions: Homo sapiens, PSN1;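 further: suppression of growth of human PSN1 cells, read out by a cell viability assay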
Description: SANGER: Inhibition of human PSN1 cell growth in a cell viability assay.

Row | Structure (SMILES) | IC50
11 | Cc1ccc(C(=O)Nc2ccc(CN3CCN(C)CC3)c(C(F)(F)F)c2)cc1C#Cc1cnc2cccnn12 [PONATINIB] | > 512 nM

test system: MLMA; experiment: cells; assay type: functional, cell-based, Homo sapiens; conditions: Homo sapiens, MLMA;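 further: growth inhibition of MLMA cells (human), determined through a cell viability readout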
Description: SANGER: Inhibition of human MLMA cell growth in a cell viability assay.

Row | Structure (SMILES) | IC50
12 | Cc1ccc(C(=O)Nc2ccc(CN3CCN(C)CC3)c(C(F)(F)F)c2)cc1C#Cc1cnc2cccnn12 [PONATINIB] | 90.6 nM

test system: KM12; experiment: cells; assay type: functional, cell-based, Homo sapiens; conditions: Homo sapiens, KM12;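 further: KM12 cell growth inhibition, read out with a cell viability assay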
Description: SANGER: Inhibition of human KM12 cell growth in a cell viability assay.

Row | Structure (SMILES) | IC50
13 | Cc1ccc(C(=O)Nc2ccc(CN3CCN(C)CC3)c(C(F)(F)F)c2)cc1C#Cc1cnc2cccnn12 [PONATINIB] | 97.4 nM

test system: NCI-H526; experiment: cells; assay type: functional, cell-based, Homo sapiens; conditions: Homo sapiens, NCI-H526;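 further: growth inhibition of the human NCI-H526 cell line, measured by a cell viability assay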
Description: SANGER: Inhibition of human NCI-H526 cell growth in a cell viability assay.

Row | Structure (SMILES) | IC50
14 | Cc1ccc(C(=O)Nc2ccc(CN3CCN(C)CC3)c(C(F)(F)F)c2)cc1C#Cc1cnc2cccnn12 [PONATINIB] | > 512 nM

test system: NCI-H1770; experiment: cells; assay type: functional, cell-based, Homo sapiens; conditions: Homo sapiens, NCI-H1770;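 further: growth inhibition of NCI-H1770 cells determined with a viability readout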
Description: SANGER: Inhibition of human NCI-H1770 cell growth in a cell viability assay.

Row | Structure (SMILES) | IC50
15 | Cc1ccc(C(=O)Nc2ccc(CN3CCN(C)CC3)c(C(F)(F)F)c2)cc1C#Cc1cnc2cccnn12 [PONATINIB] | > 512 nM

test system: J-RT3-T3-5; experiment: cells; assay type: functional, cell-based, Homo sapiens; conditions: Homo sapiens, J-RT3-T3-5;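 further: cell viability assay measuring growth inhibition of human J-RT3-T3-5 cells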
Description: SANGER: Inhibition of human J-RT3-T3-5 cell growth in a cell viability assay.

Row | Structure (SMILES) | IC50
16 | Cc1ccc(C(=O)Nc2ccc(CN3CCN(C)CC3)c(C(F)(F)F)c2)cc1C#Cc1cnc2cccnn12 [PONATINIB] | > 512 nM

test system: KG-1; experiment: cells; assay type: functional, cell-based, Homo sapiens; conditions: Homo sapiens, KG-1;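 further: growth inhibition of KG-1 cells, read out by a cell viability assay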
Description: SANGER: Inhibition of human KG-1 cell growth in a cell viability assay.

Row | Structure (SMILES) | IC50
17 | Cc1ccc(C(=O)Nc2ccc(CN3CCN(C)CC3)c(C(F)(F)F)c2)cc1C#Cc1cnc2cccnn12 [PONATINIB] | 32.9 nM

test system: NCI-H1648; experiment: cells; assay type: functional, cell-based, Homo sapiens; conditions: Homo sapiens, NCI-H1648;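 further: cell viability assay measuring inhibition of NCI-H1648 cell growth, from the Sanger screening data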
Description: SANGER: Inhibition of human NCI-H1648 cell growth in a cell viability assay.

Row | Structure (SMILES) | IC50
18 | Cc1ccc(C(=O)Nc2ccc(CN3CCN(C)CC3)c(C(F)(F)F)c2)cc1C#Cc1cnc2cccnn12 [PONATINIB] | > 512 nM

test system: U-266; experiment: cells; assay type: functional, cell-based, Homo sapiens; conditions: Homo sapiens, U-266
Description: SANGER: Inhibition of human U-266 cell growth in a cell viability assay.

Row | Structure (SMILES) | IC50
19 | Cc1ccc(C(=O)Nc2ccc(CN3CCN(C)CC3)c(C(F)(F)F)c2)cc1C#Cc1cnc2cccnn12 [PONATINIB] | > 512 nM

test system: KY821; experiment: cells; assay type: functional, cell-based, Homo sapiens; conditions: Homo sapiens, KY821;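 further: growth inhibition of human KY821 cells, read out by a cell viability assay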
Description: SANGER: Inhibition of human KY821 cell growth in a cell viability assay.

Row | Structure (SMILES) | IC50
20 | Cc1ccc(C(=O)Nc2ccc(CN3CCN(C)CC3)c(C(F)(F)F)c2)cc1C#Cc1cnc2cccnn12 [PONATINIB] | > 512 nM

test system: MZ1-PC; experiment: cells; assay type: functional, cell-based, Homo sapiens; conditions: Homo sapiens, MZ1-PC;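 further: cell viability assay measuring growth inhibition of human MZ1-PC cells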
Description: SANGER: Inhibition of human MZ1-PC cell growth in a cell viability assay.

Row | Structure (SMILES) | IC50
21 | Cc1ccc(C(=O)Nc2ccc(CN3CCN(C)CC3)c(C(F)(F)F)c2)cc1C#Cc1cnc2cccnn12 [PONATINIB] | 113 nM

test system: D-247MG; experiment: cells; assay type: functional, cell-based; conditions: Homo sapiens
Description: SANGER: Inhibition of human D-247MG cell growth in a cell viability assay.

Row | Structure (SMILES) | IC50
22 | Cc1ccc(C(=O)Nc2ccc(CN3CCN(C)CC3)c(C(F)(F)F)c2)cc1C#Cc1cnc2cccnn12 [PONATINIB] | > 512 nM

test system: SW 962; experiment: cells; assay type: functional, cell-based, Homo sapiens; conditions: Homo sapiens, SW 962;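 further: growth inhibition of human SW962 cells, read out by a cell viability assay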
Description: SANGER: Inhibition of human SW962 cell growth in a cell viability assay.

Row | Structure (SMILES) | IC50
23 | Cc1ccc(C(=O)Nc2ccc(CN3CCN(C)CC3)c(C(F)(F)F)c2)cc1C#Cc1cnc2cccnn12 [PONATINIB] | > 512 nM

test system: TGBC1TKB; experiment: cells; assay type: functional, cell-based, Homo sapiens; conditions: Homo sapiens, TGBC1TKB;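 further: growth inhibition of TGBC1TKB cells, read out by a cell viability assay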
Description: SANGER: Inhibition of human TGBC1TKB cell growth in a cell viability assay.

Row | Structure (SMILES) | IC50
24 | Cc1ccc(C(=O)Nc2ccc(CN3CCN(C)CC3)c(C(F)(F)F)c2)cc1C#Cc1cnc2cccnn12 [PONATINIB] | > 512 nM

test system: SNU1; experiment: cells; assay type: functional, cell-based, Homo sapiens; conditions: Homo sapiens, SNU1;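 further: growth inhibition of human NCI-SNU-1 cells, measured with a cell viability assay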
Description: SANGER: Inhibition of human NCI-SNU-1 cell growth in a cell viability assay.

Row | Structure (SMILES) | IC50
25 | Cc1ccc(C(=O)Nc2ccc(CN3CCN(C)CC3)c(C(F)(F)F)c2)cc1C#Cc1cnc2cccnn12 [PONATINIB] | > 512 nM
